Read-outs that look alike come from different tables or passages of the source.
Key:
DENV-4 = assay: Viral yield assay against DENV-4 in Vero cells; format: cell-based; settings: Dengue virus, DENV4, viral yield assay
Description: Compounds that were active in the primary screen were tested for activity in viral yield assays. […] Vero cells in 12-well plates were infected with dengue-2 virus at a multiplicity of infection (MOI) of 0.1, treated with compound (or DMSO as a control), incubated at 37° C., harvested 48 hours post infection and titered on Vero cells as described above. The EC50 was calculated through ExcelFit. Activities against other serotypes of dengue virus were determined in a similar way.

[1] = system: Dengue-2 (Strain New Guinea C); assay: Viral yield assay against Dengue-2 in Vero cells; format: cell-based, Dengue virus; settings: read-out: Activity (EC50 in μM) DENV-2
Method in brief: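 Progeny virus from compound-treated Vero monolayers infected at an MOI of 0.1 is collected after 48 h at 37° C and titered on Vero cells. DMSO serves as control.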

[2] = Dengue virus, DENV2, viral yield assay, Vero cells, MOI 0.1, 48 hours post infection
[3] = Dengue virus, DENV2, Vero, 48 h

Compound	EC50 [1, 2]	other results
COc1ccc(-c2ccc3c(N)c(C(=O)Nc4ccc(OC(F)(F)F)cc4)sc3n2)cc1OC [Compound 584, 3-amino-6-(3,4-dimethoxyphenyl)-N-[4-(trifluoromethoxy)phenyl]thieno[2,3-b] pyridine-2-carboxamide]	< 5 µM	EC50 (DENV-4): < 5 µM
Cc1cc(F)ccc1NC(=O)c1sc2nc(-c3ccc4c(c3)OCO4)ccc2c1N [Compound 593, 3-amino-6-(1,3-benzodioxol-5-yl)-N-(4-fluoro-2-methyl-phenyl)thieno[2,3-b] pyridine-2-carboxamide]	< 5 µM	
COc1ccc(Cl)cc1NC(=O)c1sc2nc(-c3ccc4c(c3)OCO4)ccc2c1N [Compound 594, 3-amio-6-(1,3-benzodioxol-5-yl)-N-(5-chloro-2-methoxy-phenyl)thieno[2,3-b] pyridine-2-carboxamide]	< 5 µM	
Nc1c(C(=O)Nc2ccc(F)c(Cl)c2)sc2nc(-c3ccc4c(c3)OCO4)ccc12 [Compound 595, 3-amino-6-(1,3-benzodioxol-5-yl)-N-(3-chloro-4-fluoro-phenyl)thieno[2,3-b] pyridine-2-carboxamide]	< 5 µM	
Nc1c(C(=O)Nc2ccc(Cl)cc2)sc2nc(-c3ccc4c(c3)OCO4)ccc12 [Compound 601, 3-amino-6-(1,3-benzodioxol-5-yl)-N-(4-chlorophenyl)thieno[2,3-b]pyridine-2-carboxamide]	< 5 µM	
Cc1c(Cl)cccc1NC(=O)c1sc2nc(-c3ccc(F)cc3)ccc2c1N [Compound 604, 3-amino-N-(3-chloro-2-methyl-phenyl)-6-(4-fluorophenyl)thieno[2,3-b]pyridine-2-carboxamide]	< 5 µM	
Nc1c(C(=O)Nc2cc(Cl)ccc2Cl)sc2nc(-c3ccc(F)cc3)ccc12 [Compound 605, 3-amino-N-(2,5-dichlorophenyl)-6-(4-fluorophenyl)thieno[2,3-b]pyridine-2-carboxamide]	< 5 µM	
CCOc1ccccc1NC(=O)c1sc2nc(-c3ccc(F)cc3)ccc2c1N [Compound 606, 3-amino-N-(2-ethoxyphenyl)-6-(4-fluorophenyl)thieno[2,3-b]pyridine-2-carboxamide]	< 5 µM	
Cc1ccc(NC(=O)c2sc3nc(-c4ccc(F)cc4)ccc3c2N)cc1C [Compound 607, 3-amino-N-(3,4-dimethylphenyl)-6-(4-fluorophenyl)thieno[2,3-b]pyridine-2-carboxamide]	< 5 µM	
Nc1c(C(=O)Nc2ccc3c(c2)OCO3)sc2nc(-c3ccc(F)cc3)ccc12 [Compound 608, 3-amino-N-(1,3-benzodioxol-5-yl)-6-(4-fluorophenyl)thieno[2,3-b]pyridine-2-carboxamide]		EC50 [1, 3]: < 5 µM
Cc1ccccc1NC(=O)c1sc2nc(-c3ccc(F)cc3)ccc2c1N [Compound 610, 3-amino-6-(4-fluorophenyl)-N-(o-tolyl) thieno[2,3-b]pyridine-2-carboxamide]	< 5 µM	
CCOc1cccc(NC(=O)c2sc3nc(-c4ccc(F)cc4)ccc3c2N)c1 [Compound 611, 3-amino-N-(3-ethoxyphenyl)-6-(4-fluorophenyl)thieno[2,3-b]pyridine-2-carboxamide]	< 5 µM	
Nc1c(C(=O)Nc2ccc(F)c(Cl)c2)sc2nc(-c3ccc(F)cc3)ccc12 [Compound 613, 3-amino-N-(3-chloro-4-fluoro-phenyl)-6-(4-fluorophenyl)thieno[2,3-b]pyridine-2-carboxamide]	< 5 µM	
Cc1ccc(NC(=O)c2sc3nc(-c4ccc(F)cc4)ccc3c2N)c(C)c1 [Compound 614, 3-amino-N-(2,4-dimethylphenyl)-6-(4-fluorophenyl)thieno[2,3-b]pyridine-2-carboxamide]	< 5 µM	
COc1ccc(NC(=O)c2sc3nc(-c4ccc(F)cc4)ccc3c2N)cc1OC [Compound 619, 3-amino-N-(3,4-dimethoxyphenyl)-6-(4-fluorophenyl)thieno[2,3-b]pyridine-2-carboxamide]		EC50 [1, 3]: < 5 µM
Cc1ccc(Cl)cc1NC(=O)c1sc2nc(-c3ccc(F)cc3)ccc2c1N [Compound 621, 3-amino-N-(5-chloro-2-methyl-phenyl)-6-(4-fluorophenyl)thieno[2,3-b]pyridine-2-carboxamide]	< 5 µM	
Nc1c(C(=O)Nc2cc(Cl)cc(Cl)c2)sc2nc(-c3ccc(F)cc3)ccc12 [Compound 622, 3-amino-N-(3,5-dichlorophenyl)-6-(4-fluorophenyl)thieno[2,3-b]pyridine-2-carboxamide]	< 5 µM	
Cc1ccc(F)cc1NC(=O)c1sc2nc(-c3ccc(F)cc3)ccc2c1N [Compound 623, 3-amino-N-(5-fluoro-2-methyl-phenyl)-6-(4-fluorophneyl)thieno[2,3-b]pyridine-2-carboxamide]	< 5 µM	
COc1ccc(NC(=O)c2sc3nc(-c4ccc(F)cc4)ccc3c2N)c(C)c1 [Compound 624, 3-amio-6-(4-fluorophenyl)-N-(4-methoxy-2-methyl-phenyl)thieno[2,3-b] pyridine-2-carboxamide]	< 5 µM	

Compound	EC50 [1, 2]	other results
COc1cccc(-c2ccc3c(N)c(C(=O)Nc4cc(C)ccc4C)sc3n2)c1 [Compound 626, 3-amino-N-(2,5-dimethylphenyl)-6-(3-methoxyphenyl)thieno[2,3-b]pyridine-2-carboxamide]	< 5 µM	
COc1cccc(-c2ccc3c(N)c(C(=O)Nc4ccc(C)cc4Br)sc3n2)c1 [Compound 627, 3-amino-N-(2-bromo-4-methyl-phenyl)-6-(3-methoxyphenyl)thieno[2,3-b] pyridine-2-carboxamide]	< 5 µM	
Nc1c(C(=O)Nc2cc(F)ccc2F)sc2nc(-c3cc(Cl)ccc3Cl)ccc12 [Compound 629, 3-amino-6-(2,5-dichlorophenyl)-N-(2,5-difluorophenyl)thieno[2,3-b]pyridine-2-carboxamide]	< 5 µM	
Cc1cccc(NC(=O)c2sc3nc(-c4ccc(Cl)cc4)ccc3c2N)c1 [Compound 632, 3-amino-6-(4-chlorophenyl)-N-(m-tolyl)thieno[2,3-b]pyridine-2-carboxamide]	< 5 µM	
COc1ccc(-c2ccc3c(N)c(C(=O)Nc4cccc(C)c4)sc3n2)cc1OC [Compound 633, 3-amino-6-(3,4-dimethoxyphenyl)-N-(m-tolyl)thieno[2,3-b]pyridine-2-carboxamide]	< 5 µM	
COc1ccc(-c2ccc3c(N)c(C(=O)Nc4ccccc4)sc3n2)cc1OC [Compound 634, 3-amino-6-(3,4-dimethoxyphenyl)-N-phenyl-thieno[2,3-b]pyridine-2-carboxamide]	< 5 µM	
Cc1ccc(-c2ccc3c(N)c(C(=O)Nc4ccccc4C)sc3n2)cc1 [Compound 637, 3-amino-N-(o-tolyl)-6-(p-tolyl)thieno [2,3-b]pyridine-2-carboxamide]	< 5 µM	
Cc1ccc(-c2ccc3c(N)c(C(=O)Nc4ccccc4[N+](=O)[O-])sc3n2)cc1 [Compound 639, 3-amino-N-(2-nitrophenyl)-6-(p-tolyl) thieno[2,3-b]pyridine-2-carboxamide]	< 5 µM	
Cc1ccc(-c2ccc3c(N)c(C(=O)Nc4ccc(F)cc4)sc3n2)cc1 [Compound 640, 3-amino-N-(4-fluorophenyl)-6-(p-tolyl) thieno[2,3-b]pyridine-2-carboxamide]	< 5 µM	
COc1ccc(Cl)cc1NC(=O)c1sc2nc(-c3ccc(C)cc3)ccc2c1N [Compound 641, 3-amino-N-(5-chloro-2-methoxy-phenyl)-6-(p-tolyl)thieno[2,3-b]pyridine-2-carboxamide]	< 5 µM	
Cc1ccc(-c2ccc3c(N)c(C(=O)Nc4ccccc4)sc3n2)cc1 [Compound 642, 3-amino-N-phenyl-6-(p-tolyl)thieno[2,3-b]pyridine-2-carboxamide]	< 5 µM	
COc1ccccc1NC(=O)c1sc2nc(-c3ccc(C)cc3)ccc2c1N [Compound 643, 3-amino-N-(2-methoxyphenyl)-6-(p-tolyl)thieno[2,3-b]pyridine-2-carboxamide]	< 5 µM	
Cc1ccc(-c2ccc3c(N)c(C(=O)Nc4cccc(C)c4)sc3n2)cc1 [Compound 644, 3-amino-N-(m-tolyl)-6-(p-tolyl)thieno[2,3-b]pyridine-2-carboxamide]	< 5 µM	
CCOc1ccccc1NC(=O)c1sc2nc(-c3ccc(C)cc3)ccc2c1N [Compound 647, 3-amino-N-(2-ethoxyphenyl)-6-(p-tolyl)thieno[2,3-b]pyridine-2-carboxamide]	< 5 µM	
Cc1ccc(-c2ccc3c(N)c(C(=O)Nc4ccccc4F)sc3n2)cc1 [Compound 649, 3-amino-N-(2-fluorophenyl)-6-(p-tolyl) thieno[2,3-b]pyridine-2-carboxamide]	< 5 µM	
Nc1c(C(=O)Nc2ccncc2)sc2nc(-c3cccc(C(F)(F)F)c3)ccc12 [Compound 653, 3-amino-N-(4-pyridyl)-6-[3-(trifluoromethyl)phenyl]thieno[2,3-b] pyridine-2-carboxamide]	< 5 µM	
Nc1c(C(=O)Nc2ccc(Br)cc2)sc2nc(-c3ccc(Cl)cc3Cl)ccc12 [Compound 654, 3-amino-N-(4-bromophenyl)-6-(2,4-dichlorophenyl)thieno[2,3-b]pyridine-2-carboxamide]	< 5 µM	
Nc1c(C(=O)Nc2ccc3c(c2)OCO3)sc2nc(-c3ccc(F)cc3F)ccc12 [Compound 655, 3-amino-N-(1,3-benzodioxol-5-yl)-6-(2,4-difluorophenyl)thieno[2,3-b]pyridine-2-carboxamide]	< 5 µM	
N-(1-adamantyl)-3-amino-6-(2-thienyl) thieno[2,3-b]pyridine-2-carboxamide [Compound 426]		EC50 ([1]; viral yield assay, Vero cells, MOI 0.1, 48 hours post infection): < 5 µM

From patent publication US20170121344A1 (Siga Technologies, Inc., priority 2009, published 2017)
